According to publication PMC3071374, “High Throughput Screens Yield Small Molecule Inhibitors of Leishmania CRK3:CYC6 Cyclin-Dependent Kinase” (PLoS Neglected Tropical Diseases, 2011):
Like-named read-outs stand apart in the source and are kept apart here. One block for each compound: values may come before it.

How the values were obtained:
WT promastigote L. major = assay: L. major promastigote growth inhibition assay (resazurin); assay type: cell-based; conditions: for IC50: 5 days at 25°C, read-out: IC50 against WT promastigote L. major; for inhibition of parasite growth in culture (in words): promastigotes and intra-macrophage amastigotes in culture
Experimental: L. major wild type promastigotes (Friedlin strain: WHO designation MHOM/JL/81/Friedlin) were grown at 25°C in HOMEM medium (Invitrogen cat no. 041-94699111) supplemented with 10% (v/v) heat inactivated foetal calf serum (HIFCS) and 1% (v/v) penicillin/streptomycin antibiotics.
CRK3 inhibitors were diluted into HOMEM medium supplemented with 10% HIFCS at twice the final screening concentration. Five-fold or ten-fold serial dilutions were carried out into HOMEM medium supplemented with 10% HIFCS. 100 µl of each drug concentration were added to a 96 well plate in duplicate. 100 µl of five-fold or ten-fold serial dilutions of 1 mM Pentamidine (Sigma) and an equivalent volume of 100% DMSO were included as positive and negative controls, in duplicate, respectively. L. major promastigote cells were diluted to a cell density of 2×10^6 cells ml^−1 in HOMEM media supplemented with 10% HIFCS and 100 µl added to all wells in 96 well plates. Plates were sealed with parafilm and incubated for 5 days at 25°C. After 5 days, 20 µl of filter sterile resazurin solution (12.5 mg resazurin salt in 100 ml PBS) (Sigma) was added to each of the wells and the plate incubated for a further 24 hours at 25°C. Fluorescence was measured using an Envision plate reader (Perkin Elmer) at 540 nm excitation wavelength and 590 nm emission wavelength.

Leishmania CRK3:CYC6 = Leishmania CRK3:CYC6 (Leishmania major, UniProt O96526); assay type: biochemical
Leishmania CRK3:CYC6, sequence (Q4Q4U0 entry or part of it): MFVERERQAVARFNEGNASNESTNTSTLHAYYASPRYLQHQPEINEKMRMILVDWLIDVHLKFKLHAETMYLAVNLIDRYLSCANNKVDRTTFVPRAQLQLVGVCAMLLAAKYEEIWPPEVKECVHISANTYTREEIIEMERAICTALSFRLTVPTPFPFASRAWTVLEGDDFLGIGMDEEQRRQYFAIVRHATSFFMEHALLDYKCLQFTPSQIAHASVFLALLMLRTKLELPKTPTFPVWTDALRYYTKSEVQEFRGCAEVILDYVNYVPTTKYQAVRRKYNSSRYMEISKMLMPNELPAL
Leishmania CRK3:CYC6, sequence (O96526 entry or part of it): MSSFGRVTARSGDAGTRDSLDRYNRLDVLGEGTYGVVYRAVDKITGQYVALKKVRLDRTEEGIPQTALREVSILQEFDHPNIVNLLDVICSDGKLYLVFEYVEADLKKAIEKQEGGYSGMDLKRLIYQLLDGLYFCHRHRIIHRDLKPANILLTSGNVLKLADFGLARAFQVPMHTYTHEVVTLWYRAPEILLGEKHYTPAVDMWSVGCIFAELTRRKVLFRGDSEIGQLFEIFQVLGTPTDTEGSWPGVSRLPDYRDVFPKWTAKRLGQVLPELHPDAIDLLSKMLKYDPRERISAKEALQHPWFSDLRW
Experimental: (§1) Leishmania CRK3:CYC6 protein kinase assays were performed in 96-well microtiter plates in a final volume of 25 µl. Each assay point contained 7.5 ng of co-expressed histidine-tagged CRK3:CYC6 protein kinase complex (hereafter referred to as CRK3:CYC6) diluted in enzyme dilution buffer (EDB) (20 mM Tris-HCl pH 7.2, 0.5 mg ml^−1 BSA, 2.5% glycerol and 0.006% Brij-35). Assays were performed using the assay development buffer (ADB) (20 mM MOPS, pH 7.0, 25 mM β-glycerophosphate, 5 mM EGTA, 1 mM NaVO3, 1 mM DTT and 15 mM MgCl2) supplemented with 100 µM ATP, 0.5 µCi of γ-^32P ATP per reaction and histone H1 as a substrate used at 0.4 mg ml^−1. Two and three-fold titrations were set up to determine the concentration of enzyme to be used per assay point (7.5 ng) and to determine the concentrations of selected inhibitors required for 50% inhibition of Leishmania CRK3:CYC6 protein kinase activity (IC50 values), respectively. For IC50 determinations, assay mixes contained DMSO to a final concentration of 2%. Mammalian protein kinase assays were carried out according to the assay protocols developed at Cyclacel. Assays were carried out for 30 minutes at 30°C before stopping the reaction by the addition of an equal volume (25 µl) of 75 mM orthophosphoric acid. Samples were spotted onto a p81 cellulose filterplate (Nunc) and a vacuum applied. Wells were washed 3×200 µl with 75 mM phosphoric acid and the bottom of the plate sealed. 50 µl of Microscint 40 (Perkin Elmer) was added per well before incorporation of radioactivity was determined on a Topcount microplate scintillation counter.

CDK4:CYCD1 = CDK4:CYCD1 (Homo sapiens, UniProt P11802); assay: Mammalian protein kinase assay, CDK4:CYCD1; assay type: biochemical; conditions: Lexicon azapurine HTS hits
CDK4:CYCD1, sequence (P11802 whole entry): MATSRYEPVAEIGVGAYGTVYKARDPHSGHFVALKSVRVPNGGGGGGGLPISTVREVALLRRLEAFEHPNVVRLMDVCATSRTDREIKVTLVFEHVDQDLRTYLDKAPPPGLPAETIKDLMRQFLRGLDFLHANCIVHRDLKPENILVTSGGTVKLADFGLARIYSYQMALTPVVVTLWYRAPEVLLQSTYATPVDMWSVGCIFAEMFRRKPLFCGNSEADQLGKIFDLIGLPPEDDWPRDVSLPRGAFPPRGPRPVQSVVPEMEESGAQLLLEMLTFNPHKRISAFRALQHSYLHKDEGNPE
CDK4:CYCD1, sequence (P24385 whole entry partner): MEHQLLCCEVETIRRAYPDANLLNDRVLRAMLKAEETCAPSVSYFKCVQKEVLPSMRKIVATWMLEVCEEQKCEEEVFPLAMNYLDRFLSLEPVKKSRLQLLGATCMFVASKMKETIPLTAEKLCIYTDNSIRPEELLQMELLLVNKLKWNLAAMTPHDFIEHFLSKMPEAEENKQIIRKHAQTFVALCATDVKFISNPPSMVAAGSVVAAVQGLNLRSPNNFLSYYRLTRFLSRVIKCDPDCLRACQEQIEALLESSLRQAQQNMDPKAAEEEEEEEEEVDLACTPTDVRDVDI
Experimental: as §1

WT amastigote L. major = assay: Intra-macrophage L. major amastigote assay; assay type: cell-based; conditions: for IC50: infected peritoneal macrophages, read-out: IC50 against WT amastigote L. major
Experimental: Macrophages were harvested from the peritoneum of Balb/C mice, centrifuged at 1000× g for 10 minutes at 4°C and resuspended in fresh RPMI 1640 media supplemented with 10% HIFCS and 1% (v/v) Gentamicin, as described previously. Macrophages were diluted to a cell density of 5×10^5 cells ml^-1 in RPMI supplemented with 10% HIFCS and 100 μl were added to each well of a 16-well Lab-tek cavity slide (50,000 mφ/well) and incubated at 37°C, 5% CO2 for subsequent experiments. […] Inhibitors were set up in a five-fold dilution series in RPMI 1640 medium supplemented with 10% […] of inhibitor were added to the wells in serial dilution and slides incubated for 72 hours at 37°C with 5% CO2. After 72 hours the medium was removed and replaced with fresh medium containing the same concentrations of inhibitors and incubated for a further 48 hours at 37°C with 5% CO2. At the end of the incubation period, the medium was removed, the slides were washed twice with fresh RPMI 1640 medium supplemented with 10% HIFCS then fixed with 100% methanol and stained with 10% Giemsa's stain for 10 minutes. The percentage of infected macrophages and number of amastigotes per macrophage were determined by light microscopy under oil immersion.

human CDK2:CycA = human CDK2:CycA (Homo sapiens, UniProt P24941); assay: Mammalian protein kinase assay / counter screen, CDK2:CYCA; assay type: biochemical; conditions: BioFocus SFK48 HTS hits, re-screen
Experimental: as §1

[1] = Lexicon azapurine HTS hits, maximum concentration tested 10 µM
[2] = synthesised azapurine derivatives
[3] = BioFocus SFK48 HTS hits, rescreen
[4] = re-synthesised Lexicon azapurine hits

Structure (SMILES): COc1ccc(-n2nnc3c(N(C)C4COCC4N(C)C)nc(CC4CCCCC4)nc32)cc1 (stereo not shown) [Compound 4]
- IC50 (WT promastigote L. major; [1]): > 10 µM
- IC50 (Leishmania CRK3:CYC6; Lexicon azapurine HTS hits): 4.4 µM
- IC50 (CDK4:CYCD1): 10.3 µM
- IC50 (WT amastigote L. major; Lexicon azapurine HTS hits): > 50 µM

- IC50 (Leishmania CRK3:CYC6; [2]): > 50 µM
Structure (SMILES): COc1ccc(-n2nnc3c(O)nc(Cc4ccc(Br)cc4)nc32)cc1 [Compound 26]

Structure (SMILES): COc1ccc(-n2nnc3c(NC(Cc4ccccc4)Cn4nc(C)cc4C)nc(CC4CCCCC4)nc32)cc1 (stereo not shown) [Compound 10]
- IC50 (Leishmania CRK3:CYC6; Lexicon azapurine HTS hits): 10.1 µM
- IC50 (CDK4:CYCD1): 7.3 µM

- IC50 (Leishmania CRK3:CYC6; [3]): 3.5 µM
- IC50 (human CDK2:CycA): > 20 µM
Structure (SMILES): NC(c1ccccc1)c1csc(NC(=O)Nc2ccccc2)n1 (stereo not shown) [Compound 36]
- IC50 (WT promastigote L. major; BioFocus SFK48 HTS hits): 26.8 µM

- IC50 (Leishmania CRK3:CYC6; [2]): 30.3 µM
- IC50 (WT amastigote L. major; [2]): 15 to 30 µM
Structure (SMILES): COc1ccc(-n2nnc3c(N4CCOCC4)nc(CC4CCCCC4)nc32)cc1 [Compound 27]
- activity towards promastigote L. major (in words) (WT promastigote L. major): showed a range of activity
- inhibition of parasite growth in culture (in words) (WT promastigote L. major): inhibited parasite growth in culture
- IC50 (WT promastigote L. major; [2]): 28.7 µM

- IC50 (Leishmania CRK3:CYC6; [3]): 7.8 µM
- IC50 (human CDK2:CycA): > 20 µM
Structure (SMILES): CC(C)c1ccccc1NC(=O)Nc1nc(C2CCC(=O)N2)cs1 (stereo not shown) [Compound 40]
- IC50 (WT promastigote L. major; BioFocus SFK48 HTS hits): > 50 µM

Structure (SMILES): COc1ccc(-n2nnc3c(N(C)C(CN4CCCCC4)c4ccccc4)nc(CC4CCCCC4)nc32)cc1 (stereo not shown) [Compound 7]
- IC50 (Leishmania CRK3:CYC6; Lexicon azapurine HTS hits): 7.8 µM
- IC50 (CDK4:CYCD1): 19.5 µM

Structure (SMILES): COc1ccc(-n2nnc3c(N4CCCC(O)C4)nc(CC4CCCCC4)nc32)cc1 (racemic) [Compound 5]
- IC50 (WT promastigote L. major; [1]): 8.6 µM
- IC50 (Leishmania CRK3:CYC6; Lexicon azapurine HTS hits): 5.3 µM
- IC50 (Leishmania CRK3:CYC6; [4]): 4.2 µM
- IC50 (CDK4:CYCD1): 9.7 µM
- activity towards the amastigote life cycle stage (in words) (WT amastigote L. major): no activity
- IC50 (WT amastigote L. major; Lexicon azapurine HTS hits): > 50 µM

- IC50 (Leishmania CRK3:CYC6; [2]): > 50 µM
- IC50 (WT amastigote L. major; [2]): > 50 µM
Structure (SMILES): ONc1nc(CC2CCCCC2)nc2c1nnn2Cc1ccc(F)cc1 [Compound 35]
- IC50 (WT promastigote L. major; [2]): > 50 µM

Structure (SMILES): COc1ccc(-n2nnc3c(N(C)CCN(C)C4c5ccccc5CC4O)nc(CC4CCCCC4)nc32)cc1 (stereo not shown) [Compound 1]
- IC50 (WT promastigote L. major; [1]): > 10 µM
- IC50 (Leishmania CRK3:CYC6; Lexicon azapurine HTS hits): 2.6 µM
- IC50 (CDK4:CYCD1): 12.5 µM
- IC50 (WT amastigote L. major; Lexicon azapurine HTS hits): > 50 µM

- IC50 (Leishmania CRK3:CYC6; [3]): 4.8 µM
- IC50 (human CDK2:CycA): > 20 µM
Structure (SMILES): NC(c1ccccc1)c1csc(NC(=O)Nc2ccccc2Cl)n1 (stereo not shown) [Compound 37]
- IC50 (WT promastigote L. major; BioFocus SFK48 HTS hits): 27.5 µM

Structure (SMILES): COc1ccc(Cn2nnc3c(N4CCOCC4)nc(CC4CCCCC4)nc32)cc1 [Compound 20]
- inhibition of CRK3/CYC6 in vitro (in words) (Leishmania CRK3:CYC6): did not inhibit

- IC50 (Leishmania CRK3:CYC6; [2]): 39.1 µM
- IC50 (WT amastigote L. major; [2]): 5 to 15 µM
Structure (SMILES): COc1ccc(Cn2nnc3c(NCc4ccccn4)nc(CC4CCCCC4)nc32)cc1 [Compound 17]
- activity towards promastigote L. major (in words) (WT promastigote L. major): showed a range of activity
- inhibition of parasite growth in culture (in words) (WT promastigote L. major): inhibited parasite growth in culture
- IC50 (WT promastigote L. major; [2]): 7.4 µM

Structure (SMILES): COc1ccc(-n2nnc3c(N4CCCC(CO)C4)nc(CC4CCCCC4)nc32)cc1 (stereo not shown) [Compound 6]
- IC50 (WT promastigote L. major; [1]): > 10 µM
- IC50 (Leishmania CRK3:CYC6; Lexicon azapurine HTS hits): 6.9 µM
- IC50 (Leishmania CRK3:CYC6; [4]): 4.4 µM
- IC50 (CDK4:CYCD1): 9.2 µM
- IC50 (WT amastigote L. major; Lexicon azapurine HTS hits): > 50 µM

Structure (SMILES): COc1ccc(-n2nnc3c(N4CC(N5CCN(c6ccccn6)CC5)C4)nc(CC4CCCCC4)nc32)cc1 [Compound 11]
- IC50 (Leishmania CRK3:CYC6; Lexicon azapurine HTS hits): 10.3 µM
- IC50 (CDK4:CYCD1): 6.7 µM

- IC50 (Leishmania CRK3:CYC6; [3]): 7.5 µM
- IC50 (human CDK2:CycA): > 20 µM
Structure (SMILES): COc1ccc(C(N)c2csc(NC(=O)Nc3ccc(C(C)C)cc3)n2)cc1 (stereo not shown) [Compound 39]
- IC50 (WT promastigote L. major; BioFocus SFK48 HTS hits): 3.8 µM
